Structures are written as SMILES.

What all share (format): in vivo
Experiment [1] deals with Rats with mechanically injured paws. The experiment in a line: Rat model of neuropathic pain due to injury: tolerance to weight applied to the injured paw. On the procedure:
Rats with mechanically injured paws were used as models of neuropathic pain. In the test, a weight is applied to the injured paw, and the pain response is assessed. […] Rats (groups or 8-10 rats per treatment) were treated with oral saline (control) or 3, 10 or 30 mg/kg of D-cycloserine for a period of two weeks. Pain was monitored from two days before the treatment commenced for a period of 35 days total. […] The open squares represent the control. The black squares represent 30 mg/kg dosage. The two intermediate lines are 3 (lighter) and 10 mg/kg (darker). […] The black squares are the retreated animals, the white squares are the controls and the intermediate colored squares are animals treated for the first time with 30 mg/kg. […] Thus, treatment of chronic pain requires a treatment regimen that extends over a period of time, for example at least one week, sufficient to provide a benefit to the individual being treated.

Experiment [2] shares this test system. The experiment in a line: Rat model of neuropathic pain due to injury: test based on paw position. Conditions: same test animals as FIGS. 2A-C; FIGS. 3A-C. On the procedure:
Rats with mechanically injured paws were used as models of neuropathic pain. In the test, a weight is applied to the injured paw, and the pain response is assessed. […] Rats (groups or 8-10 rats per treatment) were treated with oral saline (control) or 3, 10 or 30 mg/kg of D-cycloserine for a period of two weeks. Pain was monitored from two days before the treatment commenced for a period of 35 days total. FIGS. 3A-C show results for the same test animals as FIGS. 2A-C, except using a test based on paw position as opposed to tolerance to applied weight. In this case, lower numbers reflect lesser pain.

The subject of experiment [3] is rats treated with cisplatin. The experiment in a line: Rat model of cisplatin-induced neuropathy: mechanical sensitivity. On the procedure: To model drug-induced pain, rats were treated with cisplatin (2 mg/kg), a common chemotherapy drug. As shown graphically in FIG. 4, after 14 days of treatment, the rats had developed mechanical sensitivity. […] In contrast, sensitivity was maintained in rats treated with a saline control (white bars). Thus, in rat models of cisplatin-induced neuropathy, pain behavior decreases 50% in two weeks in animals treated with cycloserine compared with animals treated with placebo.

For experiment [4], the system named is rat exhibiting mechanical sensitivity. The experiment in a line: Analgesia after infusion into different parts of the rat brain. Particulars: 50 μg infusion, FIG. 5.
The mark [5] stands for this setting: 30 mg/kg, longer treatment period, FIG. 2C.

Take `N[C@@H]1CON=C1O` [D-cycloserine]: the “analgesic effectiveness on re-treatment vs first treatment” value in experiment [1] (30 mg/kg re-treatment starting 1 day after end of the 35 day test, FIG. 2B) is listed as “about twice as great”. Further, in experiment [1] (setting [5]), the “post-treatment duration of analgesia after longer treatment” value is listed as “significant analgesic affect being observed 30 days after cessation of treatment” and the “time course of analgesic effect with longer treatment” value was “analgesic effect increases with treatment for a period of three weeks, after which a plateau is reached”. In addition, the “analgesic effect of acute administration on neuropathic behavior” value in experiment [1] (acute oral or intrathecal administration) is given as “only minimal analgesic effects”. Moreover, in experiment [1] (after end of two-week oral treatment, FIG. 2A), the post-treatment analgesia entry is given as “long-lasting analgesia”. Besides, the “day of return to initial neuropathy levels” value in experiment [1] (after two-week oral treatment, FIG. 2A) turned out to be 35 days. Moreover, the “analgesic response during treatment (tolerated weight on injured paw)” value in experiment [1] (oral 3, 10 or 30 mg/kg for two weeks, vs saline, FIG. 2A) is “generally dose-dependent response”. Besides, in experiment [2], the “pain measured by paw position (lower numbers reflect lesser pain)” value is on record as “indicates the effectiveness of the D-cycloserine”. In addition, the “decrease of pain behavior compared with placebo” value in experiment [3] (cisplatin-induced neuropathy, two weeks of treatment) came to 50%. Further, the “effect on cisplatin-induced mechanical sensitivity” value in experiment [3] (oral 30 mg/kg, two treatments per day, 14 days, with cisplatin 2 mg/kg, FIG. 4) is given as “partial reversal of the mechanical sensitivity”. Further, the “analgesia after infusion into medial prefrontal cortex” value in experiment [4] (vs saline infusion) is “result in analgesia”. In experiment [4], the “analgesia after infusion into bilateral amygdala” value is listed as “result in analgesia”; the “analgesia after infusion into visual cortex” value was “Only medial prefrontal cortex and amygdala infusions result in analgesia”.

These data come from patent US8653120B2, “Method for treatment of chronic neuropathic pain” (Apkarian Technologies LLC, priority 2004, dated 2014).
